From patent US9931347B2, “Pharmaceutical compound” (IOmet Pharma Ltd., priority 2013, dated 2018)

Tests used:
Recombinant human IDO = Recombinant human IDO (Homo sapiens, UniProt P14902); assay: hIDO biochemical coupled assay; details: 45 μM L-tryptophan, coupled with kynurenine formamidase
Protocol: (§1) Exemplary compounds of the invention were prepared, and tested to determine their effect as TDO and/or IDO inhibitors. Two different assays were employed: 1. a cell-based assay for detecting the effect of test compounds on kynurenine production in two different cancer cell types. This assay utilised cancer cells which expressed either TDO or IDO and as such was used as a means of testing compound activity at these two enzymes in a cell-based context. 2. a TDO and IDO biochemical coupled assay which utilised recombinantly produced and purified TDO and IDO enzymes in combination with the enzyme formamidase. This coupled enzyme system allowed conversion of N-formylkynurenine produced by TDO or IDO activity to kynurenine which was then quantified by fluorescence following addition of Erhlich's Reagent The protocols for these are set out below.
Recombinant human IDO or TDO was incubated in 50 mM KPO4 (pH 7.0), 0.5 mM EGTA, 0.5 mM EDTA, 0.05% Triton™ X100, 20 mM ascorbate, 10 μM methylene blue, 500 U/ml catalase, 50 μg/ml KynB (kynurenine formamidase).

[1] = biological target: T1, IDO (SKOV3 human ovarian adenocarcinoma cells, IFN-γ induced) (Homo sapiens, UniProt P14902); assay: SKOV3 Kynurenine cell based assay; details: IDO induced by 500 ng/ml IFN-γ, 500 μM L-tryptophan, 48 hours
T1 construct: IDO expression was induced in the SKOV3 cells by the addition of 500 ng/ml IFN-γ; endogenous in cells; host or cells: SKOV3 human ovarian adenocarcinoma cells, induced with IFN-γ
Protocol: as §1
(§2) A172 (human glioblastoma) and SKOV3 (human ovarian adenocarcinoma) cells were seeded in a 96 well plate at 30,000 or 40,000 cells per well respectively in phenol red-free RPMI supplemented with 10% FCS, 2 mM L-glutamine and 500 μM L-tryptophan. IDO expression was induced in the SKOV3 cells by the addition of 500 ng/ml IFN-γ. Cells were incubated at 37° C. with or without the addition of test compound. After 48 hours, the cells were removed by centrifugation and Erhlich's reagent was added to the supernatant.

[2] = biological target: T2, TDO (A172 human glioblastoma cells) (Homo sapiens, UniProt P48775); assay: A172 Kynurenine cell based assay; details: 500 μM L-tryptophan, 48 hours, kynurenine by Erhlich's reagent
T2 construct: This assay utilised cancer cells which expressed either TDO or IDO; endogenous in cells; host or cells: A172 human glioblastoma cells
Protocol: as §1
as §2, with “supernatant. The Erhlich's reagent was incubated for 5 minutes before the absorbance was read at 490 nm.” for “supernatant.”

Recombinant human IDO, sequence (P14902 whole entry): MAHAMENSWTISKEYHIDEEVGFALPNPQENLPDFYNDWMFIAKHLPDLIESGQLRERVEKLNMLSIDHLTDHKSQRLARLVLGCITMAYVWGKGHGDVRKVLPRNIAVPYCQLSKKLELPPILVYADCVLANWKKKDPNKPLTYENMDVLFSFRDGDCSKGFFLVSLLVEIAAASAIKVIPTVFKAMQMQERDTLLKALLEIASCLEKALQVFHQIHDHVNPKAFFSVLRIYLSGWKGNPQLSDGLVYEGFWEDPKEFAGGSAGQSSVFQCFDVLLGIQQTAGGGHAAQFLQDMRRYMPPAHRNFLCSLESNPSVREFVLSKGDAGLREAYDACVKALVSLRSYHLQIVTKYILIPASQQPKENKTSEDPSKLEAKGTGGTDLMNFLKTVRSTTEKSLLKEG
T1 sequence (P14902 whole entry): as above
T2 sequence (P48775 whole entry): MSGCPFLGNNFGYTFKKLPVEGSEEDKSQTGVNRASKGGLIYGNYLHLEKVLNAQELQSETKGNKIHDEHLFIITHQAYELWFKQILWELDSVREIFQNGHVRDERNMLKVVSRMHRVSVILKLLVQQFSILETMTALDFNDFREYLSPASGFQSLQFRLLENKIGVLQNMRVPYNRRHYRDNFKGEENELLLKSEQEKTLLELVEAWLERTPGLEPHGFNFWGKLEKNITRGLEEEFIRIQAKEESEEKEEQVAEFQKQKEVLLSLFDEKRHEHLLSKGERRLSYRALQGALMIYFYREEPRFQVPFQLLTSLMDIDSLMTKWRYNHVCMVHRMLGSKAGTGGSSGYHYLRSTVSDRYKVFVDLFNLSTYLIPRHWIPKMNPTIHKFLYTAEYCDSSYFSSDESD

| SMILES | hIDO biocehmical assay pIC50 (Recombinant human IDO) | SKOV3 Kynurenine cell based assay pIC50 [1] | A172 Kynurenine cell based assay pIC50 [2] |
| --- | --- | --- | --- |
| COc1ccc(Cl)cc1S(=O)(=O)N1CCC(c2c[nH]c3c(C)cccc23)CC1 [Compound 45] | +− (+− = pIC50 <4.00) | + (+ = pIC50 4.00-4.99) | + (+ = pIC50 4.00-4.99) |
| Cc1nc(N2CCC(c3c[nH]c4cc(F)ccc34)CC2)no1 [Compound 184] | +− (+− = pIC50 <4.00) | + (+ = pIC50 4.00-4.99) | ++ (++ = pIC50 5.00-5.99) |
| CC(=O)N1CC=C(c2c[nH]c3cc(OCc4ccccc4)ccc23)CC1 [Compound 156] | +− (+− = pIC50 <4.00) | + (+ = pIC50 4.00-4.99) | + (+ = pIC50 4.00-4.99) |
| COc1ccc2[nH]cc(C3CCN(S(=O)(=O)c4ccc(C(F)(F)F)cc4Cl)CC3)c2c1 [Compound 43] | +− (+− = pIC50 <4.00) | + (+ = pIC50 4.00-4.99) | + (+ = pIC50 4.00-4.99) |
| CS(=O)(=O)N1CCC(c2c[nH]c3ccc(F)cc23)CC1 [Compound 159] | +− (+− = pIC50 <4.00) | +− (+− = pIC50 <4.00) | ++ (++ = pIC50 5.00-5.99) |
| Cc1cc(S(=O)(=O)N2CCC(c3c[nH]c4ccc(F)cc34)CC2)c(Cl)cc1Cl [Compound 39] | +− (+− = pIC50 <4.00) | + (+ = pIC50 4.00-4.99) | + (+ = pIC50 4.00-4.99) |
| Cn1cccc1C(=O)N1CCC(c2c[nH]c3cc(F)ccc23)CC1 [Compound 278] | + (+ = pIC50 4.00-4.99) | ++ (++ = pIC50 5.00-5.99) | + (+ = pIC50 4.00-4.99) |
| Cc1cccc2c(C3CCN(S(=O)(=O)c4cc(F)c(F)cc4Cl)CC3)c[nH]c12 [Compound 38] | +− (+− = pIC50 <4.00) | +− (+− = pIC50 <4.00) | + (+ = pIC50 4.00-4.99) |
| Cc1cccc2c(C3CCN(S(=O)(=O)c4cccc(C(F)(F)F)c4)CC3)c[nH]c12 [Compound 46] | +− (+− = pIC50 <4.00) | +− (+− = pIC50 <4.00) | + (+ = pIC50 4.00-4.99) |
| CC(=O)N1CCC(c2c[nH]c3ccc(F)cc23)CC1 [Compound 158] | +− (+− = pIC50 <4.00) | +− (+− = pIC50 <4.00) | + (+ = pIC50 4.00-4.99) |
| Fc1ccc2c(C3CCN(c4ncccn4)CC3)c[nH]c2c1 [Compound 180] | +− (+− = pIC50 <4.00) | ++ (++ = pIC50 5.00-5.99) | + (+ = pIC50 4.00-4.99) |
| CS(=O)(=O)N1CCCC(c2c[nH]c3cc(F)ccc23)CC1 (stereo not drawn) [Compound 182] | +− (+− = pIC50 <4.00) | + (+ = pIC50 4.00-4.99) | ++ (++ = pIC50 5.00-5.99) |
| COc1cccc2[nH]cc(C3=CCN(C(C)=O)CC3)c12 [Compound 169] | +− (+− = pIC50 <4.00) | + (+ = pIC50 4.00-4.99) | + (+ = pIC50 4.00-4.99) |
| CC(=O)Nc1ccc(S(=O)(=O)N2CCC(c3c[nH]c4ccccc34)CC2)cc1Cl [Compound 52] | +− (+− = pIC50 <4.00) | + (+ = pIC50 4.00-4.99) | +− (+− = pIC50 <4.00) |
| CC(=O)N1CCCC(c2c[nH]c3cc(F)ccc23)CC1 (stereo not drawn) [Compound 181] | +− (+− = pIC50 <4.00) | +− (+− = pIC50 <4.00) | ++ (++ = pIC50 5.00-5.99) |
| CS(=O)(=O)N1CCN(c2c[nH]c3ccccc23)CC1 [Compound 108] | +− (+− = pIC50 <4.00) | +− (+− = pIC50 <4.00) | + (+ = pIC50 4.00-4.99) |

| SMILES | hIDO biocehmical assay pIC50 (Recombinant human IDO) | SKOV3 Kynurenine cell based assay pIC50 [1] | A172 Kynurenine cell based assay pIC50 [2] |
| --- | --- | --- | --- |
| CN1CCN(c2c[nH]c3ccccc23)CC1=O [Compound 189] | +− (+− = pIC50 <4.00) | +− (+− = pIC50 <4.00) | + (+ = pIC50 4.00-4.99) |
| CC(=O)N1CCN(c2c[nH]c3ccccc23)CC1 [Compound 107] | +− (+− = pIC50 <4.00) | +− (+− = pIC50 <4.00) | + (+ = pIC50 4.00-4.99) |
| CC(=O)N1CC=C(c2c[nH]c3ccc(OCc4ccccc4)cc23)CC1 [Compound 155] | +− (+− = pIC50 <4.00) | + (+ = pIC50 4.00-4.99) | + (+ = pIC50 4.00-4.99) |
| Cc1noc(N2CCC(c3c[nH]c4cc(F)ccc34)CC2)n1 [Compound 183] | +− (+− = pIC50 <4.00) | + (+ = pIC50 4.00-4.99) | ++ (++ = pIC50 5.00-5.99) |
| CCCc1ccc(S(=O)(=O)N2CCC(c3c[nH]c4c(C)cccc34)CC2)cc1 [Compound 48] | +− (+− = pIC50 <4.00) | + (+ = pIC50 4.00-4.99) | + (+ = pIC50 4.00-4.99) |
| CCc1cc(Br)ccc1S(=O)(=O)N1CCC(c2c[nH]c3ccc(C)cc23)CC1 [Compound 50] | +− (+− = pIC50 <4.00) | + (+ = pIC50 4.00-4.99) | + (+ = pIC50 4.00-4.99) |
| CC(=O)N1CC=C(c2c[nH]c3ccncc23)CC1 [Compound 172] | +− (+− = pIC50 <4.00) | + (+ = pIC50 4.00-4.99) | + (+ = pIC50 4.00-4.99) |
| CC(=O)N1CC=C(c2c[nH]c3cccnc23)CC1 [Compound 157] | +− (+− = pIC50 <4.00) | + (+ = pIC50 4.00-4.99) | + (+ = pIC50 4.00-4.99) |
| Cc1cccc2c(C3CCN(C(=O)c4cnn(-c5ccccc5)c4C(F)(F)F)CC3)c[nH]c12 [Compound 41] | +− (+− = pIC50 <4.00) | + (+ = pIC50 4.00-4.99) | + (+ = pIC50 4.00-4.99) |
| O=S(=O)(c1ccccc1OC(F)(F)F)N1CCC(c2c[nH]c3ccc(F)cc23)CC1 [Compound 51] | +− (+− = pIC50 <4.00) | + (+ = pIC50 4.00-4.99) | + (+ = pIC50 4.00-4.99) |
| Cc1cccc2c(C3CCN(S(=O)(=O)c4ccc(C(C)(C)C)cc4)CC3)c[nH]c12 [Compound 40] | +− (+− = pIC50 <4.00) | +− (+− = pIC50 <4.00) | + (+ = pIC50 4.00-4.99) |
| COc1ccc2[nH]cc(C3CCN(S(=O)(=O)c4cccc(OC(F)(F)F)c4)CC3)c2c1 [Compound 53] | +− (+− = pIC50 <4.00) | + (+ = pIC50 4.00-4.99) | + (+ = pIC50 4.00-4.99) |
| Cc1[nH]c2ccccc2c1C1=CCN(S(C)(=O)=O)CC1 [Compound 160] | +− (+− = pIC50 <4.00) | + (+ = pIC50 4.00-4.99) | +− (+− = pIC50 <4.00) |
| O=S(=O)(C1CCCC1)N1CCC(c2c[nH]c3cc(F)ccc23)CC1 [Compound 291] | – | + (+ = pIC50 4.00-4.99) | ++ (++ = pIC50 5.00-5.99) |
| CC(=O)N1CCC(c2c[nH]c3cc(Cl)ccc23)CC1 [Compound 245] | – | + (+ = pIC50 4.00-4.99) | ++ (++ = pIC50 5.00-5.99) |
| Fc1ccc2c(C3CCN(c4ccccn4)CC3)c[nH]c2c1 [Compound 193] | – | ++ (++ = pIC50 5.00-5.99) | ++ (++ = pIC50 5.00-5.99) |
